Results taken from patent publication US3968207A, “Method of controlling fleas and ticks on cats and dogs” (priority 1975, dated 1976).

What was measured:
Ctenocephalides felis [1] = assay: 2% pressurized spray for control of fleas on dogs; assay type: in vivo
Method: An experiment was carried out on dogs obtained from a licensed laboratory animal dealer. These dogs were mixed breeds and of different size and sex. The dogs were individually housed in cages with absorbent paper placed under each in order to count dead fleas. A mixture containing 2% O,O,O',O'-tetramethyl O,O'-thiodi-p-phenylene phosphorothioate (active ingredient) and having the following formula was used as a pressurized spray: […]
Two tests were carried out, one with 22 dogs and the other with 21 dogs, each test using 5 control dogs. Each dog was treated with approximately 60 mg./kg. of O,O,O',O'-tetramethyl O,O'-thiodi-p-phenylene phosphorothioate using the formulation described above. Each dog was infested with 100 1-day old adult C. felis 72 hours prior to spray treatment and reinfested on a weekly basis for 7 weeks, beginning 7 days after treatment. The five control dogs were treated with a blank spray containing everything except the active ingredient. After treatment or each reinfestation, daily examinations of each dog were made up to 7 days or until no live fleas could be found. Once a live flea was found, the dog was considered still infested even though the flea population may have been low. The number of dead fleas recovered from papers under the cages are expressed as average dead on treated/average dead on control are summarized in Table XVII.

fleas and ticks = assay: Control of fleas and ticks (general statement); assay type: in vivo; details: topically and systemically
Ctenocephalides felis [2] = assay: Flea control on dogs given oral doses (gelatin capsules), Table III; assay type: in vivo; set-up: key to Flea Control: 100% Control; PC: Partial Control; NC: No Control
Method: Five groups of two mongrel dogs each were dosed daily with 0, 0.78, 3.1, 12.5 or 50 mg. O,O,O',O'-tetramethyl O,O'-thiodi-p-phenylene phosphorothioate/kg. body weight in gelatin capsules for 10 days. Medication began three days after infestations with 100 adult Ctenocephalides felis. […] Purina High Protein Dog Meal was fed once daily for the duration of the experiment. Water was provided ad libitum. The following table summarizes the results of the test.

Ctenocephalides felis [3] = assay: 2% powder against experimental flea infestations on cats; assay type: in vivo; details: 60 mg/kg as 2% powder
Method: An experiment was conducted using O,O,O',O'-tetramethyl O,O'-thiodi-p-phenylene phosphorothioate which was prepared from a 25% concentrate diluted with talc so the final powder was 2% drug. Prior to the start of the test 23 cats were classified according to sex, age, hair length and color and divided into five groups. One of these groups was then randomly selected to be the controls and the other groups were assigned for treatment in a random order. The amount of 2% drug dust applied to each cat was calculated prior to treatment to give a dose rate of 60 mg. drug/kg. The duster was weighed before treating each cat and at intervals during dusting to get as near the desired dose as possible. […] Table VII summarizes the results obtained up to 48 days after treatment.

[4] = Toxicity (general statement); assay type: in vivo, dogs and cats; details: at concentrations many times that of the actual amounts employed

COP(=S)(OC)Oc1ccc(Sc2ccc(OP(=S)(OC)OC)cc2)cc1 [O,O,O',O'-tetramethyl O,O'-thiodi-p-phenylene phosphorothioate]
Percent of Dogs with Control (Ctenocephalides felis [1]; 60 mg/kg 2% pressurized spray, week 0): 100% | Percent of Dogs with Control (Ctenocephalides felis [1]; 60 mg/kg 2% pressurized spray, week 1): 100% | Percent of Dogs with Control (Ctenocephalides felis [1]; 60 mg/kg 2% pressurized spray, week 2): 100% | Percent of Dogs with Control (Ctenocephalides felis [1]; 60 mg/kg 2% pressurized spray, week 3): 100% | Percent of Dogs with Control (Ctenocephalides felis [1]; 60 mg/kg 2% pressurized spray, week 4): 97.6% | Percent of Dogs with Control (Ctenocephalides felis [1]; 60 mg/kg 2% pressurized spray, week 5): 95.2% | Percent of Dogs with Control (Ctenocephalides felis [1]; 60 mg/kg 2% pressurized spray, week 6): 82.9% | Percent of Dogs with Control (Ctenocephalides felis [1]; 60 mg/kg 2% pressurized spray, week 7): 58.5% | Avg. Dead on Treated, Average on Two Tests (Ctenocephalides felis [1]; 60 mg/kg, week 0, control 2.0): 36.3 | Avg. Dead on Treated, Average on Two Tests (Ctenocephalides felis [1]; 60 mg/kg, week 1, control 5.6): 41.4 | Avg. Dead on Treated, Average on Two Tests (Ctenocephalides felis [1]; 60 mg/kg, week 2, control 3.0): 41.2 | Avg. Dead on Treated, Average on Two Tests (Ctenocephalides felis [1]; 60 mg/kg, week 3, control 4.8): 41.2 | Avg. Dead on Treated, Average on Two Tests (Ctenocephalides felis [1]; 60 mg/kg, week 4, control 5.2): 40.7 | Avg. Dead on Treated, Average on Two Tests (Ctenocephalides felis [1]; 60 mg/kg, week 5, control 5.6): 36.0 | Avg. Dead on Treated, Average on Two Tests (Ctenocephalides felis [1]; 60 mg/kg, week 6, control 4.8): 30.0 | Avg. Dead on Treated, Average on Two Tests (Ctenocephalides felis [1]; 60 mg/kg, week 7, control 4.8): 26.3 | Number of Dogs on Which Fleas were Controlled (Ctenocephalides felis [1]; Combination of Test 1 & 2, 60 mg/kg, week 0, of 43): 43 dogs | Number of Dogs on Which Fleas were Controlled (Ctenocephalides felis [1]; Combination of Test 1 & 2, 60 mg/kg, week 1, of 43): 43 dogs | Number of Dogs on Which Fleas were Controlled (Ctenocephalides felis [1]; Combination of Test 1 & 2, 60 mg/kg, week 2, of 43): 43 dogs | Number of Dogs on Which Fleas were Controlled (Ctenocephalides felis [1]; Combination of Test 1 & 2, 60 mg/kg, week 3, of 42): 42 dogs | Number of Dogs on Which Fleas were Controlled (Ctenocephalides felis [1]; Combination of Test 1 & 2, 60 mg/kg, week 4, of 42): 41 dogs | Number of Dogs on Which Fleas were Controlled (Ctenocephalides felis [1]; Combination of Test 1 & 2, 60 mg/kg, week 5, of 42): 40 dogs | Number of Dogs on Which Fleas were Controlled (Ctenocephalides felis [1]; Combination of Test 1 & 2, 60 mg/kg, week 6, of 41): 34 dogs | Number of Dogs on Which Fleas were Controlled (Ctenocephalides felis [1]; Combination of Test 1 & 2, 60 mg/kg, week 7, of 41): 24 dogs | Number of Dogs on Which Fleas were Controlled (Ctenocephalides felis [1]; Experiment 1, 60 mg/kg 2% pressurized spray, week 0, of 22): 22 dogs | Number of Dogs on Which Fleas were Controlled (Ctenocephalides felis [1]; Experiment 1, 60 mg/kg 2% pressurized spray, week 1, of 22): 22 dogs | Number of Dogs on Which Fleas were Controlled (Ctenocephalides felis [1]; Experiment 1, 60 mg/kg 2% pressurized spray, week 2, of 22): 22 dogs | Number of Dogs on Which Fleas were Controlled (Ctenocephalides felis [1]; Experiment 1, 60 mg/kg 2% pressurized spray, week 3, of 22): 22 dogs | Number of Dogs on Which Fleas were Controlled (Ctenocephalides felis [1]; Experiment 1, 60 mg/kg 2% pressurized spray, week 4, of 22): 22 dogs | Number of Dogs on Which Fleas were Controlled (Ctenocephalides felis [1]; Experiment 1, 60 mg/kg 2% pressurized spray, week 5, of 22): 22 dogs | Number of Dogs on Which Fleas were Controlled (Ctenocephalides felis [1]; Experiment 1, 60 mg/kg 2% pressurized spray, week 6, of 22**): 20 dogs | Number of Dogs on Which Fleas were Controlled (Ctenocephalides felis [1]; Experiment 1, 60 mg/kg 2% pressurized spray, week 7, of 21): 12 dogs | Number of Dogs on Which Fleas were Controlled (Ctenocephalides felis [1]; Experiment 2, 60 mg/kg 2% pressurized spray, week 0, of 21): 21 dogs | Number of Dogs on Which Fleas were Controlled (Ctenocephalides felis [1]; Experiment 2, 60 mg/kg 2% pressurized spray, week 1, of 21): 21 dogs | Number of Dogs on Which Fleas were Controlled (Ctenocephalides felis [1]; Experiment 2, 60 mg/kg 2% pressurized spray, week 2, of 21): 21 dogs | Number of Dogs on Which Fleas were Controlled (Ctenocephalides felis [1]; Experiment 2, 60 mg/kg 2% pressurized spray, week 3, of 20**): 20 dogs | Number of Dogs on Which Fleas were Controlled (Ctenocephalides felis [1]; Experiment 2, 60 mg/kg 2% pressurized spray, week 4, of 20): 19 dogs | Number of Dogs on Which Fleas were Controlled (Ctenocephalides felis [1]; Experiment 2, 60 mg/kg 2% pressurized spray, week 5, of 20): 18 dogs | Number of Dogs on Which Fleas were Controlled (Ctenocephalides felis [1]; Experiment 2, 60 mg/kg 2% pressurized spray, week 6, of 20): 14 dogs | Number of Dogs on Which Fleas were Controlled (Ctenocephalides felis [1]; Experiment 2, 60 mg/kg 2% pressurized spray, week 7, of 20): 12 dogs | Avg. Dead on Treated (Ctenocephalides felis [1]; Test 1, 60 mg/kg, week 0, control 38): 34.6 | Avg. Dead on Treated (Ctenocephalides felis [1]; Test 1, 60 mg/kg, week 1, control 10.4): 38.2 | Avg. Dead on Treated (Ctenocephalides felis [1]; Test 1, 60 mg/kg, week 2, control 3.4): 42.1 | Avg. Dead on Treated (Ctenocephalides felis [1]; Test 1, 60 mg/kg, week 3, control 4.6): 41.6 | Avg. Dead on Treated (Ctenocephalides felis [1]; Test 1, 60 mg/kg, week 4, control 5.4): 37.8 | Avg. Dead on Treated (Ctenocephalides felis [1]; Test 1, 60 mg/kg, week 5, control 5.0): 34.1 | Avg. Dead on Treated (Ctenocephalides felis [1]; Test 1, 60 mg/kg, week 6, control 6.2): 34.1 | Avg. Dead on Treated (Ctenocephalides felis [1]; Test 1, 60 mg/kg, week 7, control 6.6): 30.8 | Avg. Dead on Treated (Ctenocephalides felis [1]; Test 2, 60 mg/kg, week 0, control .2): 38.0 | Avg. Dead on Treated (Ctenocephalides felis [1]; Test 2, 60 mg/kg, week 1, control .8): 44.5 | Avg. Dead on Treated (Ctenocephalides felis [1]; Test 2, 60 mg/kg, week 2, control 2.6): 40.3 | Avg. Dead on Treated (Ctenocephalides felis [1]; Test 2, 60 mg/kg, week 3, control 5.0): 40.7 | Avg. Dead on Treated (Ctenocephalides felis [1]; Test 2, 60 mg/kg, week 4, control 5.0): 43.6 | Avg. Dead on Treated (Ctenocephalides felis [1]; Test 2, 60 mg/kg, week 5, control 6.2): 37.9 | Avg. Dead on Treated (Ctenocephalides felis [1]; Test 2, 60 mg/kg, week 6, control 3.5): 26.0 | Avg. Dead on Treated (Ctenocephalides felis [1]; Test 2, 60 mg/kg, week 7, control 3.0): 21.8 | controlling fleas and ticks (fleas and ticks): highly effective | flea activity (Ctenocephalides felis [2]; oral 0.78 mg/kg): no flea activity was observed | Flea Control (Ctenocephalides felis [2]; oral 3.1 mg/kg daily, day 0): NC | Flea Control (Ctenocephalides felis [2]; oral 3.1 mg/kg daily, day 1): NC | Flea Control (Ctenocephalides felis [2]; oral 3.1 mg/kg daily, day 2): NC | Flea Control (Ctenocephalides felis [2]; oral 3.1 mg/kg daily, day 3): PC | Flea Control (Ctenocephalides felis [2]; oral 3.1 mg/kg daily, day 4): PC | Flea Control (Ctenocephalides felis [2]; oral 3.1 mg/kg daily, day 7): 100 (100% Control) | Flea Control (Ctenocephalides felis [2]; oral 3.1 mg/kg, both dogs, after 7 days): complete control | Flea Control (Ctenocephalides felis [2]; oral 12.5 mg/kg daily, day 0): NC | Flea Control (Ctenocephalides felis [2]; oral 12.5 mg/kg daily, day 2): PC | Flea Control (Ctenocephalides felis [2]; oral 12.5 mg/kg daily, day 3): PC | Flea Control (Ctenocephalides felis [2]; oral 12.5 mg/kg daily, day 4): PC | Flea Control (Ctenocephalides felis [2]; oral 12.5 mg/kg daily, day 7): 100 (100% Control) | Flea Control (Ctenocephalides felis [2]; oral 12.5 mg/kg, another dog, after 7 days): complete control | Flea Control (Ctenocephalides felis [2]; oral 12.5 mg/kg, one dog, after 24 hours): complete control | Flea Control (Ctenocephalides felis [2]; oral 50 mg/kg daily, day 0): NC | Flea Control (Ctenocephalides felis [2]; oral 50 mg/kg daily, day 1): 100 (100% Control) | Flea Control (Ctenocephalides felis [2]; oral 50 mg/kg, after 24 hours): complete flea control | Flea Control (Ctenocephalides felis [2]; oral .78 mg/kg daily, day 0): NC | Flea Control (Ctenocephalides felis [2]; oral .78 mg/kg daily, day 1): NC | Flea Control (Ctenocephalides felis [2]; oral .78 mg/kg daily, day 2): NC | Flea Control (Ctenocephalides felis [2]; oral .78 mg/kg daily, day 3): NC | Flea Control (Ctenocephalides felis [2]; oral .78 mg/kg daily, day 4): NC | Flea Control (Ctenocephalides felis [2]; oral .78 mg/kg daily, day 7): NC | Flea Control (Ctenocephalides felis [2]; oral .78 mg/kg daily, day 8): NC | control (Ctenocephalides felis [3]; fifth week): 64% | residual control against C. felis on cats (Ctenocephalides felis [3]; for four weeks): excellent residual control | control (Ctenocephalides felis [3]; for three weeks): 100% | control (Ctenocephalides felis [3]; fourth week): 90% | control (Ctenocephalides felis [3]; sixth week): 40% | toxicity [4]: substantially non-toxic
